Residues, ends and D or L forms follow the SMILES beside them. *: point of attachment. MeOSuc = COC(=O)CCC(=O)*; CH2Cl = ClC*
Columns and labels:
elastase-like activity [1] = assay: Gelatin substrate gel electrophoresis of U-937 cell lysates, gel incubated with protease inhibitors; assay type: biochemical, Human; conditions: 100 μM inhibitor in gel incubation
PC-12 cells [2] = assay: STS-induced apoptosis in PC-12 cells, morphological quantification; assay type: cell-based, rat
Procedure: (§1) The rat pheochromocytoma PC-12 cell line was propagated in DMEM medium (Gibco, BRL), supplemented with 5% heat-inactivated calf serum, 10% heat-inactivated horse serum, and 2 mM L-glutamine. […]. Then the cells were washed twice and maintained in glucose-free RPMI-1640 medium (Beit Haemek, Israel), and supplemented with 2 mM pyruvate and 10% dialyzed FCS for one hour. U-937 and PC-12 cells were incubated with and without 1 μM oligomycin (Sigma) for 45 min, and cells were treated with or without 1.25 μM staurosporine (STS) (Sigma) for an additional seven hours in U-937 cells or five hours in PC-12 cells. Alternatively, cells were treated with or without 100 ng/ml anti-Fas (Upstate biotechnology, USA) for the same time period.
(§2) 200 μM elastase inhibitor III (MeOSuc-Ala-Ala-Pro-Val-CMK from Calbiochem) when added was administered 30 min before addition of the inducers. The inhibitor was dissolved in DMSO to a concentration of 100 mM. The final concentration of DMSO in the system was 0.2%, and was added to all treatments. In separate experiments, 200 μM of an elastase inhibitor (CE1037, manufactured by Cortech Inc.) was administered 30 min before addition of the inducers. The inhibitor was dissolved in PBS.
(§3) Cells undergoing morphological changes associated with apoptotic or necrotic cell death were monitored as described by McGahon et al. [Methods Cell Biol, 46: p. 153-85 (1995)]. Briefly, 1 ml of the cells was collected and centrifuged. The pellet was resuspended in a 20-fold dilution of the dye mixture (composed of 100 μg/ml acridine orange and 100 μg/ml ethidium bromide in PBS), placed on a glass slide and viewed on an inverted fluorescence microscope. A minimum of 200 cells was scored for each sample.

PC-12 cells [3] = assay: STS plus oligomycin-induced necrosis in PC-12 cells, morphological quantification; assay type: cell-based, rat
Procedure: as §1
[…] The inhibitor was dissolved in DMSO to a concentration of 100 mM. The final concentration of DMSO in the system was 0.2%, and was added to all treatments. In separate experiments, 200 μM of an elastase inhibitor (CE1037, manufactured by Cortech Inc.) was administered 30 min before addition of the inducers. The inhibitor was dissolved in PBS.
as §3

U-937 cells [4] = assay: Anti-Fas-induced apoptosis/necrosis in U-937 cells, morphological quantification (acridine orange/ethidium bromide); assay type: cell-based, Human; conditions: for effect on anti-Fas-induced apoptotic and necrotic cell death: anti-Fas with or without oligomycin, inhibitor added
Procedure: (§4) Human promonocytic U-937 cells in logarithmic phase were seeded at a concentration of 4×10^5/ml. Afterwards the cells were washed twice and seeded again in glucose-free RPMI-1640 medium (Beit Haemek, Israel) supplemented with 2 mM pyruvate (Beit Haemek, Israel) and 10% dialyzed FCS (Gibco, BRL) for one hour.
as §1, §2, §3

elastase-like activity [5] = assay: Gelatin substrate gel electrophoresis of lysates of U-937 cells treated with KCN and elastase inhibitor; assay type: cell-based, Human; conditions: 5 mM KCN, 200 μM elastase inhibitor, 3 h
PC-12 cells [6] = assay: KCN-induced necrosis in PC-12 cells, morphological quantification; assay type: cell-based, rat
Procedure: The rat pheochromocytoma PC-12 cell line was propagated in DMEM medium (Gibco, BRL), supplemented with 5% heat-inactivated calf serum, 10% heat-inactivated horse serum, and 2 mM L-glutamine. PC-12 cells in logarithmic phase were seeded at a concentration of 1.2×10^5/well in 24-well plates (Cellstar). Then the cells were washed twice and maintained in glucose-free RPMI-1640 medium (Beit Haemek, Israel), and supplemented with 2 mM pyruvate and 10% dialyzed FCS for one hour. […] Alternatively, cells were treated with or without 100 ng/ml anti-Fas (Upstate biotechnology, USA) for the same time period. U-937 and PC-12 cells cultured in complete RPMI-1640 medium were washed and seeded in glucose-free RPMI-1640 medium, as described above, and treated with or without 0.5 mM KCN (Merck, Germany) for seven hours with U-937 cells, or for five hours with PC-12 cells. […] Cells undergoing morphological changes associated with apoptotic or necrotic cell death were monitored as described by McGahon et al. [Methods Cell Biol, 46: p. […] The pellet was resuspended in a 20-fold dilution of the dye mixture (composed of 100 μg/ml acridine orange and 100 μg/ml ethidium bromide in PBS), placed on a glass slide and viewed on an inverted fluorescence microscope. A minimum of 200 cells was scored for each sample.

U-937 cells [7] = assay: STS plus oligomycin-induced cell killing in U-937 cells, trypan blue exclusion; assay type: cell-based, Human
Procedure: as §4, §1
200 μM elastase inhibitor III (MeOSuc-Ala-Ala-Pro-Val-CMK from Calbiochem) when added was administered 30 min before addition of the inducers. […]
At each time point, cell viability was determined by the trypan blue exclusion method (Daniel C P, Parreira A., et al. Leukemia Res. 11:191-196 (1987). Assays were performed in duplicate.

U-937 cells [8] = conditions: elastase inhibitor III without KCN
[9] = lysate of U-937 cells treated with 0.5 mM KCN for 3 h
[10] = lysate of U-937 cells treated with anti-Fas and oligomycin for 3 h
[11] = 1.25 μM STS with 1 μM oligomycin, 100 μM elastase inhibitor

## Cc1ccc(S(=O)(=O)N[C@@H](Cc2ccccc2)C(=O)CCl)cc1 [TPCK]
elastase-like activity [1]; [9]
  band of protease activity in presence of inhibitor: not
elastase-like activity [1]; [10]
  band of protease activity in presence of inhibitor: not

## CN[C@@H]1C[C@H]2O[C@@](C)([C@@H]1OC)n1c3ccccc3c3c4c(c5c6ccccc6n2c5c31)C(=O)NC4 [STS, staurosporine]
PC-12 cells [2]; 1.25 μM STS alone, compared to control
  apoptosis: about 73%
PC-12 cells [3]; 1.25 μM STS with 1 μM oligomycin
  necrosis: about 70%

## CC[C@H]1/C=C/C=C/C[C@@H](C)[C@H](O)[C@@](C)(O)C(=O)[C@@H](C)[C@H](O)[C@@H](C)C(=O)[C@@H](C)[C@H](O)[C@@H](C)/C=C/C(=O)O[C@@H]2[C@H](C)[C@H](CC1)O[C@]1(CC[C@H](C)[C@H](C[C@@H](C)O)O1)[C@H]2C [Oligomycin, oligomycin]
U-937 cells [4]; 1 μM oligomycin alone
  effect of oligomycin by itself on cell death: inactive by itself
PC-12 cells [3]; oligomycin alone
  effect of oligomycin by itself on cell death: inactive by itself

## CC(C)C[C@H](NC(=O)N[C@H](C(=O)N[C@@H](CCC(N)=O)C(=O)N[C@@H](C)C=O)[C@@H]1CCNC(=N)N1)C(=O)O [elastinal]
U-937 cells [4]
  effect on anti-Fas-induced apoptotic and necrotic cell death: had no effect
elastase-like activity [1]; [9]
  band of protease activity in presence of inhibitor: disappeared
elastase-like activity [1]; [10]
  band of protease activity in presence of inhibitor: disappeared

## CC(C)(CS(=O)(=O)c1ccc(OC(=O)C(C)(C)c2ccc(C(C)(C)C(=O)Oc3ccc(S(=O)(=O)CC(C)(C)C(=O)O)cc3)cc2)cc1)C(=O)O [CE1037]
U-937 cells [4]
  effect on anti-Fas-induced apoptotic and necrotic cell death: completely abrogated apoptotic as well as necrotic cell death
elastase-like activity [5]
  band of protease activity when KCN administered with inhibitor: disappeared
PC-12 cells [6]; 200 μM inhibitor without KCN
  effect of inhibitor by itself: inactive by itself
PC-12 cells [6]; 0.5 mM KCN, 200 μM inhibitor
  effect on necrosis induced by KCN: significantly inhibited necrosis
PC-12 cells [2]; 1.25 μM STS, 200 μM elastase inhibitor
  effect on apoptosis induced by STS: significantly inhibited apoptosis
PC-12 cells [2]; 200 μM elastase inhibitor without STS
  effect of inhibitor by itself: inactive by itself
PC-12 cells [3]; [11]
  necrotic cell death: 9%
  necrotic cell death shifted to apoptotic cell death: 39%
PC-12 cells [3]; 1.25 μM STS with 1 μM oligomycin, 200 μM elastase inhibitor
  effect on necrosis induced by STS: completely abrogated necrosis
PC-12 cells [3]; 200 μM elastase inhibitor alone
  effect of inhibitor by itself: inactive by itself
U-937 cells [7]; 48 hours, inhibitor alone
  effect of inhibitor by itself on cell survival: slight effect by itself
U-937 cells [7]; prolonged incubation of 48 hours
  effect on cell killing induced by STS and oligomycin (cell viability, trypan blue): significantly inhibited cell killing

## COC(=O)CCC(=O)N[C@@H](C)C(=O)N[C@@H](C)C(=O)N1CCC[C@H]1C(=O)N[C@H](C(=O)CCl)C(C)C [elastase inhibitor III, MeOSuc-Ala-Ala-Pro-Val-CMK] (MeOSuc-AAPV-CH2Cl)
U-937 cells [8]
  cell damage by inhibitor alone: did not cause any cell damage
